Experimental findings from patent US20230149401A1 (priority 2020, published 2023) are described below.

Like-named read-outs stand apart in the source and are kept apart here. Residues, ends and D or L forms follow the SMILES beside them.

By IC50 is commonly meant the concentration at which inhibition is half-maximal. Read a high IC50 as a need for much substance. The term inhibition denotes the share of the control response that was lost under treatment.

For assay [1], the target named is T1, TMPRSS2 (Homo sapiens, UniProt O15393). The conditions noted are these: HeLa-ACE2 cells, 120 μM.
Procedure: HeLa-ACE2 cells were transiently transfected with empty vector (V) or increasing cDNA ratios of V5-tagged WT spike protein to TMPRSS2 (spike-V5:TMPRSS2) as indicated and 24 h later incubated for an additional 24 h in serum-free media containing 120 μM Camostat (+) or control DMSO (−) (FIG. 12A). Immunoblot of the 24 h conditioned media (concentrated 10-fold) was first probed for S1 and S1′ using an antibody against S1-subunit (GTX135356), stripped and next probed for sACE2 (ab108252) and mature TMPRSS2m (14437-1-AP) (upper panel). Cell lysates were immunoblotted for spike protein (V5-mAb), ACE2 (ab108252) and β-Actin (lower panel). HeLa-ACE2 cells were transiently transfected for 48 h with empty vector (V), TMPRSS2, and V5-tagged spike protein (S) alone or in combination with TMPRSS2 (S+TMPRSS2) in a ratio of 1:0.7 (FIG. 12B). For each condition, 1 ml of 24h serum free conditioned media was immunoprecipitated with 2 μg goat polyclonal ACE2 antibody (AF933, R&D) and 60 μl TrueBlot anti-goat Ig IP beads (00-8844-25; Rockland) and analyzed by western blot first for S1 and S1′ (GTX135356) and next for sACE2 (rabbit MAB; ab108252) (upper right panels). For reference, 50% of the media before immunoprecipitation (concentrated 10-fold) (input) was similarly analyzed (upper left panels). Immunoblots of the cell lysates (spike protein: V5-mAb) are also shown (lower panels).
To confirm that S2a, and S2b are generated by TMPRSS2 activity in the ER, HeLa-ACE2 cells were incubated with 120 μM Camostat, known to inhibit TMPRSS2.
Assay [2] deals with SARS-CoV-2. As to the kind of experiment: microbe, parasite or virus in culture. In kind it is cell-based.
In assay [3] the test system is endogenous furin-like enzymes. The class given is cell-based, Chinese hamster. The conditions noted are these: BHK21 cells; Compound 192/219 at 0.3, 1 or 10 μM, RVKR at 50 μM; 24 h.
The subject of assay [4] is endogenous furin-like enzymes. In kind it is cell-based, human. As to conditions: A549 cells; Compound 192/219 at 0.3, 1 or 10 μM, RVKR at 50 μM; 24 h.
The target in the next assay is T2, PACE4 (PCSK6) (Homo sapiens, UniProt P29122).
T2 construct: PACE4 (PCSK6; 150-693-Tev-Flag-6His); Tev site (C); Flag (C); 6His (C); made in house; host or cells: BacMam transduced CHO cells
The assay is described as follows: Biochemical PC-inhibition assay, substrate FAM-[…]-TAMRA. The procedure: (§1) Biochemical assay: The proprotein convertases furin (108-574-Tev-Flag-6His), PC5A (PCSK5; […]-Tev-Flag-6His), PACE4 (PCSK6; 150-693-Tev-Flag-6His), and PC7 (PCSK7; 142-634-Tev-Flag-6His) enzymes were purified from BacMam transduced CHO cells. […] 0.05 μl of each concentration was transferred to the corresponding well of an assay plate, and then 5 μl of enzyme (furin, PCSK5, PCSK6, and PCSK7) in assay buffer (100 mM HEPES pH 7.5, 1 mM CaCl2) and 0.005% Triton X-100) was added using a Multidrop Combi (Thermo) to the compound plates to give a final protein concentration of 0.02, 0.5, 2.5, and 1.0 nM respectively. The plates were mixed by inversion, and following a 30 min preincubation of enzyme with compound at room temperature (˜22° C.), the substrate FAM-[…] -TAMRA (AnaSpec #808143, 5 μl of a 1, 0.25, 0.20, and 0.5 μM solution in assay buffer for furin, PCSK5, PCSK6, and PCSK7 respectively) was added using a Multidrop Combi to the entire assay plate. The plates were centrifuged at 500×g for 1 minute and incubated at room temperature for two hours. Enzyme inhibition was then quantified using an Envision instrument (PerkinElmer). Data were normalized to maximal inhibition determined by 1 μM Decanoyl-Arg-Val-Lys-Arg-Chloromethylketone (Calbiochem #344930). Golgi imaging assay: This assay uses an image-based platform to evaluate the intracellular activity of furin inhibitors. Reactions were performed in black 384-well, tissue culture-treated, clear bottom plates (Greiner). Compounds under analysis were dissolved in DMSO (1.0 mM) and serially diluted 1 to 3 with DMSO through eleven dilutions. This creates a final compound concentration range from 0.00017 to 10 μM, and 0.1 μL of each concentration was transferred to the corresponding well of the assay plate.

The target of the next assay is T3, PC7 (PCSK7) (Homo sapiens, UniProt Q16549).
T3 construct: PC7 (PCSK7; 142-634-Tev-Flag-6His); Tev site (C); Flag (C); 6His (C); made in house; host or cells: BacMam transduced CHO cells
The description is as above. The method, then:
as §1

Another assay deals with T4, PC5A (PCSK5) (Homo sapiens, UniProt Q92824).
T4 construct: fused on or other part: C-terminal Tev site, Flag tag and 6His tag
The assay is described as above. The method, then:
as §1

Assay [5] addresses T5, furin (Homo sapiens, UniProt P09958). As to the kind of experiment: biochemical.
Target sequence in this assay (P09958 108-794): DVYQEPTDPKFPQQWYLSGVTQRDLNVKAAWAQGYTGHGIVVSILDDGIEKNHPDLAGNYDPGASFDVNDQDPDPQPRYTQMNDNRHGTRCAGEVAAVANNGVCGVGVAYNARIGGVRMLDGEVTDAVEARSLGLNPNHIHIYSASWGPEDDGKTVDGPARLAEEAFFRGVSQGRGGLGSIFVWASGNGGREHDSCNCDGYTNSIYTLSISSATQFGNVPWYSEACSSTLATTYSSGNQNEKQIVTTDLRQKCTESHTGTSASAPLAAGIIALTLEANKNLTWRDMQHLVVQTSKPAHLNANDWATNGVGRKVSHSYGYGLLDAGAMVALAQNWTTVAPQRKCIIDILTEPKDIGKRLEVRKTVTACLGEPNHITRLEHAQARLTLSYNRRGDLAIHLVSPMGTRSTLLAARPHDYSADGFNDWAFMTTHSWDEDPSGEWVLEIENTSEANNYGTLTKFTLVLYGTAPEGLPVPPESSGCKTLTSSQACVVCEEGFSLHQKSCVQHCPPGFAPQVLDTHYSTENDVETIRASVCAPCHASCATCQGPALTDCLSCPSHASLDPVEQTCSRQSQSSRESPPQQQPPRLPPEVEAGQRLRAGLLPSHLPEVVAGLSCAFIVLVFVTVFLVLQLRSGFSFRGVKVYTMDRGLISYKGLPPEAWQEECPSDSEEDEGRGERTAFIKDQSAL
Procedure: Furin and TRMPSS2 fluorogenic assays: Recombinant furin was purchased from BioLegend (#719406), TRMPSS2 from Cusabio and the DABCYLGlu-EDANS labelled peptides encompassing the different cleavage sites (Supplementary Table 1) were purchased from Genscript. Reactions were performed at room temperature in black 384-well polystyrene low volume plates (CELLSTAR-Greiner Bio-One #784476) at a final volume of 15 μL. […] Cleavage of the synthetic peptides was quantitated by determining the increase of EDANS (493 nM) fluorescence following release of the DABCYL quencher, which is excited at 335 nM using a Safire 2 Tecan fluorimeter. The fluorescence was followed during 90 min, and the enzymatic activity was deduced by measurement of the increase of fluorescence during the linear phase of the reaction. Each reaction was performed in triplicate and the standard deviation was calculated using Excel-ecart type function
The subject of assay [6] is HeLa cells co-expressing the S-protein with ACE2. As to the kind of experiment: Immunocytochemistry of HeLa cells co-expressing S-protein and ACE2 (syncytia, localization). The class given is cell-based. As to conditions: 1 μM. The method, then:
Immunocytochemical analyses of HeLa cells co-expressing the S-protein or μS1/S2 with ACE2 in the absence or presence of 1 μM Compound 192 was also investigated under cell-permeabilization (P; V5 and ACE2 antibodies) and non-permeabilization (NP; S2 and ACE2 antibodies) conditions (FIGS. 14, 15). In the absence of Compound 192, the S-protein and ACE2 co-localized abundantly at the cell surface (FIG. 14-a). HeLa cells expressing both S-protein and ACE2 formed many syncytia, associated with reduced cell surface expression of the S-protein, and an even greater reduction of ACE2 (FIG. 14-b).
Cell culture and transfection were performed on glass coverslips. Cells were washed twice with PBS and fixed with fresh 4% paraformaldehyde for 10 min at room temperature. Following washes, cells were either non-permeabilized or permeabilized with 0.2% Triton X-100 in PBS containing 2% BSA for 5 min, washed, and then blocking was performed with PBS containing 2% BSA for 1 h. Cells were incubated with primary antibodies overnight at 4° C. using an antibody against V5 (mouse monoclonal R960-25; 1:1000; Invitrogen), Spike (mouse monoclonal GTX632604; 1:500; GeneTex) and ACE2 (goat polyclonal AF933; 1:500; RnDsystems). Following wash, corresponding species-specific Alexa-Fluor (488 or 555)-tagged antibodies (Molecular Probes) were incubated for 1 h at room temperature. […]

Assay [7] has as its target T5, furin. As to the kind of experiment: Biochemical PC-inhibition assay, substrate FAM-[…]-TAMRA. Details: furin (108-574-Tev-Flag-6His); Tev site (C); Flag (C); 6His (C); made in house; host or cells: BacMam transduced CHO cells.
Target sequence in this assay (P09958 108-574): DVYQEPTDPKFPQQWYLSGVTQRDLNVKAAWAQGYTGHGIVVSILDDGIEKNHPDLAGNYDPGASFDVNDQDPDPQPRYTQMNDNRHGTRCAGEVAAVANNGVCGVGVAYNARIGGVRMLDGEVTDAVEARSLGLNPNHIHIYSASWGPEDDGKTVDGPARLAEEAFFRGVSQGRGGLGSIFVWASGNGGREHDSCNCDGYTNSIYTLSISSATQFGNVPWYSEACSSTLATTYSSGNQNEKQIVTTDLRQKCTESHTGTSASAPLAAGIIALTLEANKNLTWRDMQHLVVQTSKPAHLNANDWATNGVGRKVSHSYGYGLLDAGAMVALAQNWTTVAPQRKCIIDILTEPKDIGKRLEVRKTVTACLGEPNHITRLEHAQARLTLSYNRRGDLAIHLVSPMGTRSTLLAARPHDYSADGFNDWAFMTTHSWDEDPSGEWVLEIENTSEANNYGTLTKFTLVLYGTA
Procedure: Biochemical assay: The proprotein convertases furin (108-574-Tev-Flag-6His), PC5A (PCSK5; 115-63-Tev-Flag-6His), PACE4 (PCSK6; 150-693-Tev-Flag-6His), and PC7 (PCSK7; 142-634-Tev-Flag-6His) enzymes were purified from BacMam transduced CHO cells. Reactions were performed in black 384-well polystyrene low volume plates (Greiner) at a final volume of 10 μL. […] The plates were centrifuged at 500×g for 1 minute and incubated at room temperature for two hours. Enzyme inhibition was then quantified using an Envision instrument (PerkinElmer). Data were normalized to maximal inhibition determined by 1 μM Decanoyl-Arg-Val-Lys-Arg-Chloromethylketone (Calbiochem #344930).
For assay [8], the system named is SARS-CoV-2. In kind it is cell-based.
Assay [9] has as its system endogenous furin-like enzymes. The class given is cell-based, African green monkey. The conditions noted are these: VeroE6 cells; Compound 192/219 at 0.3, 1 or 10 μM, RVKR at 50 μM; 24 h.
The target of assay [10] is T1, TMPRSS2. In kind it is cell-based. Details: expressed in transfected cells; host or cells: HeLa. The conditions noted are these: HeLa cells.
Assay [11] has as its system HIV particles pseudotyped with SARS-CoV-2 S. The class given is cell-based.
The test system of assay [12] is SARS-CoV-2 Spike ACE2-dependent cell-to-cell fusion. The assay is described as follows: microbe, parasite or virus in culture. In kind it is cell-based. The conditions noted are these: Severe acute respiratory syndrome coronavirus 2; 300 nM.
The test system of assay [13] is endogenous furin-like enzymes. The class given is cell-based. The conditions noted are these: HeLa-ACE2 cells.
Another assay addresses T6, endogenous furin (Homo sapiens, UniProt P09958).
T6 construct: the endogenous protease cleaves GFP from its N-acetylgalactosaminyltransferase-2 Golgi tether; endogenous in cells; host or cells: U2OS
The assay is described as follows: Cell-based Golgi imaging assay of U2OS cells (BMP10-mimic cleavage). The method, then:
Biochemical assay: The proprotein convertases furin (108-574-Tev-Flag-6His), PC5A (PCSK5; […]-Tev-Flag-6His), PACE4 (PCSK6; 150-693-Tev-Flag-6His), and PC7 (PCSK7; 142-634-Tev-Flag-6His) enzymes were purified from BacMam transduced CHO cells. […] 0.05 μl of each concentration was transferred to the corresponding well of an assay plate, and then 5 μl of enzyme (furin, PCSK5, PCSK6, and PCSK7) in assay buffer (100 mM HEPES pH 7.5, 1 mM CaCl2) and 0.005% Triton X-100) was added using a Multidrop Combi (Thermo) to the compound plates to give a final protein concentration of 0.02, 0.5, 2.5, and 1.0 nM respectively. […] Enzyme inhibition was then quantified using an Envision instrument (PerkinElmer). Data were normalized to maximal inhibition determined by 1 μM Decanoyl-Arg-Val-Lys-Arg-Chloromethylketone (Calbiochem #344930). […]
Cellular assay: Analyses were initiated by the addition of U2OS cells simultaneously transduced with a BacMam-delivered construct containing a Golgi-targeting sequence followed by a 12-amino acid furin/PCSK cleavage site from Bone Morphogenic Protein 10 (BMP10) and then GFP at the C terminus. […] In the absence of a furin/PCSK inhibitor, the endogenous protease cleaves GFP from its N-acetylgalactosaminyltransferase-2 Golgi tether, releasing GFP into the Golgi lumen where fluorescence is diluted below the threshold of assay sensitivity. […]

T3 sequence (Q16549 142-634): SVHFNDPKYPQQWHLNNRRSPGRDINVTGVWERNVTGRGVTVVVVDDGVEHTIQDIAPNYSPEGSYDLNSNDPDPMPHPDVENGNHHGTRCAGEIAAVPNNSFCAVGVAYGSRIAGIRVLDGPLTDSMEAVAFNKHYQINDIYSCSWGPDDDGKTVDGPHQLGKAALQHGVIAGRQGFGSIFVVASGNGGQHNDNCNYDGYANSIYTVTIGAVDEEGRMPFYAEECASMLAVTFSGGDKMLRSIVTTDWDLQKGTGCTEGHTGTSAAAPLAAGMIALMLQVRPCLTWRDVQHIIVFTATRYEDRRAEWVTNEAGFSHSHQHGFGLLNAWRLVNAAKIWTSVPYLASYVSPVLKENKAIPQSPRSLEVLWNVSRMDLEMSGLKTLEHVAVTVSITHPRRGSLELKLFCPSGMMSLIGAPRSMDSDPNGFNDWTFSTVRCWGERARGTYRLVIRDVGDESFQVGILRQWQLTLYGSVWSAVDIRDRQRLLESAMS
T1 sequence (O15393 whole entry): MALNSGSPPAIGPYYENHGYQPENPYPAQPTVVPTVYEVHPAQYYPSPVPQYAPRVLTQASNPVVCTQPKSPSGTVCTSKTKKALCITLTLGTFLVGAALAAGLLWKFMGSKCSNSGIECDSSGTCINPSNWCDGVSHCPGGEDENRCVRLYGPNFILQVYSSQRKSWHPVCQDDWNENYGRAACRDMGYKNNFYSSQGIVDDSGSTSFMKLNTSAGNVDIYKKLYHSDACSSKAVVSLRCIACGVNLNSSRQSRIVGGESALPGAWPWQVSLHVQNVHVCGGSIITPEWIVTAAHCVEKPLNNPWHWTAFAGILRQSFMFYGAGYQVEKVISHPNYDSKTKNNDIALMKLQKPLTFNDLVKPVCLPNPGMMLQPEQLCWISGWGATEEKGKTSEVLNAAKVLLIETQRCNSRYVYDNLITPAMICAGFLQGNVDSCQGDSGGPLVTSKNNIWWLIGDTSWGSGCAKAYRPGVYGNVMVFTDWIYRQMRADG
T2 sequence (P29122 150-693): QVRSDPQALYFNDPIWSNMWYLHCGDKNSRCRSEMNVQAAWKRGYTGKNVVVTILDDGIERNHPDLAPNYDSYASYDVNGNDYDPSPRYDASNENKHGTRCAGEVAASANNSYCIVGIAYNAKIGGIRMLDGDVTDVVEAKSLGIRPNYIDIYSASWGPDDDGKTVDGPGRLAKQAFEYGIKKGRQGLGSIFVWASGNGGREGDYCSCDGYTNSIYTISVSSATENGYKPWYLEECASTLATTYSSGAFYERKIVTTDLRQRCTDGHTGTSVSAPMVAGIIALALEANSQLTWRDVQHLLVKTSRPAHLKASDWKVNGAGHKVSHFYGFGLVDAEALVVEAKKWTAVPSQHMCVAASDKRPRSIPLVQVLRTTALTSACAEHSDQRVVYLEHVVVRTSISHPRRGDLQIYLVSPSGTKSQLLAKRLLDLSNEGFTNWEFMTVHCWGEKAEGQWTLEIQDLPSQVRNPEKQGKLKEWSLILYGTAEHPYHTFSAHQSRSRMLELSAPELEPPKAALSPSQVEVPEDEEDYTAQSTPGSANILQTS
T4 sequence (Q92824 115-601): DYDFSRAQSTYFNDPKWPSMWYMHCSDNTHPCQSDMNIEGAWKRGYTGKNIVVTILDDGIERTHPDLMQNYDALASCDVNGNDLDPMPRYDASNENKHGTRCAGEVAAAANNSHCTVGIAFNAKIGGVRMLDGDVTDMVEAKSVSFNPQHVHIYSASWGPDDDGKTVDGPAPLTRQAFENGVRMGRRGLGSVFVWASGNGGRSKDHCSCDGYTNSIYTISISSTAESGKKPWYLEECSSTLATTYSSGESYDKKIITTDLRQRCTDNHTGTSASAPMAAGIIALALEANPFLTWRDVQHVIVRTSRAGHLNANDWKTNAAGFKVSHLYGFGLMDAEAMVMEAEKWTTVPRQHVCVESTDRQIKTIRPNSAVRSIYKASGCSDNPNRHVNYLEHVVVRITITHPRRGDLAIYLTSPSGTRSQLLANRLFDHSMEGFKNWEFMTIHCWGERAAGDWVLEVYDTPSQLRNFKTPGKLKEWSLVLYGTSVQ
T6 sequence (P09958 108-794): as the sequence (P09958 108-794) above

For `CN(C)C(=O)COC(=O)Cc1ccc(OC(=O)c2ccc(NC(=N)N)cc2)cc1` [Camostat], at TMPRSS2 [1], the “Generation of S1′” value is on record as “in large part” and the “Generation of sACE2” value is “inhibited”. In addition, the “Formation of S2a and S2b” value on TMPRSS2 [1] (increasing TMPRSS2) is reported as “prevented”. Further, the “Viral replication, inhibitors individually” value with SARS-CoV-2 [2] is reported as “meaningfully reduce viral replication”.
Consider `CC(=O)NCC1CCN(Cc2cc(Oc3cnc(N4CCN(CCC(C)C(=O)O)CC4)nc3)nc(-c3cc(Cl)cc(Cl)c3)c2)CC1` (stereo not shown) [Compound 192, 4-(4-(5-((4-((4-(acetamidomethyl)piperidin-1-yl)methyl)-6-(3,5-dichloro-phenyl)pyridin-2-yl)oxy)pyrimidin-2-yl)piperazin-1-yl)-2-methylbutanoic acid], for which the “Inhibition of processing of pro-(S) protein to active (S)-protein” value is reported as “Inhibition was observed” in [3], “less inhibition” in [4] and “somewhat” in assay [9]. Moreover, the IC50 is about 7 nM at PACE4 (PCSK6); about 7 nM against PC7 (PCSK7); about 7 nM against PC5A (PCSK5); 4 ± 0.7 nM against furin [5]; about 7 nM at furin [7]. The “Phenotype of S-expressing HeLa cells (syncytia, S and ACE2 localization)” value in assay [6] is “phenocopy those expressing μS1/S2”. Moreover, the “Virus production in infected Vero E6 cells” value with SARS-CoV-2 [8] is recorded as “modestly reduce virus production”. At TMPRSS2 [10], the “Generation of S2a and S2b by TMPRSS2” value is “none of the compounds affected”. Further, the “Viral entry in Calu-3 of pseudovirions packaged in presence of inhibitor” value in assay [11] is listed as “block viral entry”. For the same compound, in the assay with SARS-CoV-2 [2], the “Antiviral effects and selectivity index relative to Compound 93” value is “comparable”. For the same compound, in the assay on SARS-CoV-2 [2], the “SARS-CoV-2 infection in Calu-3 cells (virus titers)” value is given as “strongly reduce”. Besides, in the assay on SARS-CoV-2 [2], the “Viral replication, inhibitors individually” value is “meaningfully reduce viral replication”. Besides, the “Viral titers at 12, 24 and 48h post-infection” value with SARS-CoV-2 [2] was “significantly decreased”. In assay [12], this compound yielded an inhibition at 0.3 µM of over 60%. Moreover, the “S1/S2 and S2′ processing by endogenous furin-like enzymes” value in assay [13] is “blocked”. Besides, the “Inhibition of S1/S2 and S2′ processing” value in [13] (300 nM) is on record as “almost complete inhibition”.
For the compound `CC(=O)NCC1CCN(Cc2cc(Oc3ccc(N4CCN(CCC(=O)O)CC4)nc3)nc(-c3cc(Cl)cc(Cl)c3)c2)CC1` [Compound 219, 3-(4-(5-((4-((4-(acetamidomethyl)piperidin-1-yl)methyl)-6-(3,5-dichlorophenyl)pyridin-2-yl)oxy)pyridin-2-yl)piperazin-1-yl)propanoicacid], the “Inhibition of processing of pro-(S) protein to active (S)-protein” value is recorded as “Inhibition was observed” in assay [3], “less inhibition” in assay [4] and “somewhat” in assay [9]. For the same compound, the IC50 against PACE4 (PCSK6), at PC7 (PCSK7), against PC5A (PCSK5) and at furin [7] was about 7 nM each time. Further, the “Virus production in infected Vero E6 cells” value in the assay on SARS-CoV-2 [8] was “modestly reduce virus production”. At TMPRSS2 [10], the “Generation of S2a and S2b by TMPRSS2” value is “none of the compounds affected”. For the same compound, the “Viral entry in Calu-3 of pseudovirions packaged in presence of inhibitor” value in assay [11] was “block viral entry”. In the assay on SARS-CoV-2 [2], the “Antiviral effects and selectivity index relative to Compound 93” value was “comparable”. The “SARS-CoV-2 infection in Calu-3 cells (virus titers)” value in the assay on SARS-CoV-2 [2] is “strongly reduce”. In the assay on SARS-CoV-2 [2], the “Viral titers at 12, 24 and 48h post-infection” value is listed as “significantly decreased”. In assay [12], this compound returned an inhibition at 0.3 µM of over 60%. Moreover, in [13], the “S1/S2 and S2′ processing by endogenous furin-like enzymes” value is recorded as “blocked”.
For `CCCCCCCCCC(=O)N[C@@H](CCCNC(=N)N)C(=O)N[C@H](C(=O)N[C@@H](CCCCN)C(=O)N[C@@H](CCCNC(=N)N)C(=O)CCl)C(C)C` [RVKR-cmk, Decanoyl-Arg-Val-Lys-Arg-CMK, reference compound] (HELM PEPTIDE1{[CCCCCCCCCC(=O)[*:2]].R.V.K.R.[ClC[*:1]]}$$$$V2.0), the IC50 was about 9 nM against PACE4 (PCSK6); about 9 nM against PC7 (PCSK7); about 9 nM against PC5A (PCSK5); 5 nM at endogenous furin; about 9 nM at furin [7].
